# Source: patent US11733243B2, “Use of acamprosate to modulate ERK1/2 activation in animal models for FXS and ASD and individuals diagnosed with FXS and ASD” (Indiana University Research and Technology Corporation, priority 2013, dated 2023)
# Entries after “also recorded” stand apart in the source; their conditions may differ.
# Experiment: safety and adverse effects in the autistic disorder trial
# Type: in vivo, human
# Conditions: idiopathic ASD, nine patients, range 600-1,998 mg/day
# Protocol: A 12-week single-blind, placebo-controlled trial of the effect of acamprosate in the treatment of 12 youths with autistic disorder aged 5 to 17 years was carried out. In order to pilot test use of acamprosate in youth with autism targeting core social impairment, was conducted. All subjects and their family members were blinded to treatment status. All subjects participated in a 2 week placebo-lead-in phase prior to 10 weeks of treatment with acamprosate. For this project, enteric coated commercially available 333 mg acamprosate pills were over-encapsulated and identical matching placebo manufactured for the project. Placebo-responders, defined by a Clinical Global Impressions Improvement scale (CGI-I) score of 1 “very much improved” or 2 “much improved” (ratings anchored to core social deficits) at week 2 were asked to exit the study. During active treatment with acamprosate, dosing was increased in 333 mg increments per week over the first six weeks of active treatment to a maximum dose of 1,332 mg/day (weight<5 60 kg) or 1,998 mg/day (weight>60 kg). During the final four weeks of active drug treatment, subjects were maintained on a stable highest tolerated (optimal) dose. The primary outcome measure was the clinician-rated CGI-I anchored to symptoms of social impairment. […]
compound,measurement,value
"CC(=O)NCCCS(=O)(=O)O [Acamprosate, 3-Acetamidopropane-1-sulfonic acid]",tolerability,well tolerated with no adverse effects leading to drug discontinuation or laboratory/vital sign abnormalities noted; also recorded: well tolerated with no adverse effects leading to drug discontinuation and no vital sign or safety laboratory changes noted
